Data taken from publication PMC12514245, “Impaired migration and lung invasion of human melanoma by a novel small molecule targeting the transmembrane domain of death receptor p75^NTR” (EMBO Molecular Medicine, 2025).
Values joined by “and” are separate entries in the source; they are usually repeats but may differ in a detail not shown here. Equal values may be shown once. “Also recorded” adds a separate entry of the source.

Legend:
p75^NTR TMD = molecular target: T1, p75^NTR TMD (Homo sapiens, UniProt P08138); assay: AraTM assay, wild-type p75NTR TMD (GFP/OD630); assay type: cell-based
T1 sequence (P08138 250-275 limits assumed): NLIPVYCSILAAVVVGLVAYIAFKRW

p75^NTR TMD V254A = molecular target: T2, p75^NTR TMD V254A (Homo sapiens, UniProt P08138, V254A); assay: AraTM assay, V254A mutant p75NTR TMD; assay type: cell-based; details: for GFP/OD630, Mean / GFP/OD630, individual replicates: V254A;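 as to GFP/OD630, Mean: normalised to the no-drug GFP/OD630 signal set at 100%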;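 as to GFP/OD630, individual replicates: normalised to the no-drug GFP/OD630 signal set at 100%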
T2 construct: Comparison of wild-type (WT) p75^NTR TMD and I252A, P253G and V254A mutants in the AraTM assay; expressed in transfected cells; host or cells: E. coli AS19 (LPS-negative)
T2 sequence (P08138 250-275 V254A): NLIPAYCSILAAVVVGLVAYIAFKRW

[1] = wt, compound 10 μM, Figure 5C-E
[2] = wt, compound 20 μM, Figure 5C-E
[3] = wt, compound 30 μM, Figure 5C-E
[4] = wt, compound 40 μM, Figure 5C-E

Cc1cccc(-c2cncc(Nc3ccc(Br)c(Cl)c3Cl)n2)c1C [Np75-4A22]
IC50 in the AraTM assay, compared with Div17E5 (p75^NTR TMD): improved IC50 compared to Div17E5 | GFP/OD630, Mean (p75^NTR TMD; compound 2 μM, Figure 5B): 0.98 | GFP/OD630, individual replicates (p75^NTR TMD; compound 2 μM, Figure 5B): 0.97 and 0.96 and 1.01 | GFP/OD630, Mean (p75^NTR TMD; compound 4 μM, Figure 5B): 0.58 | GFP/OD630, individual replicates (p75^NTR TMD; compound 4 μM, Figure 5B): 0.59 and 0.58 and 0.56 | GFP/OD630, Mean (p75^NTR TMD; compound 6 μM, Figure 5B): 0.46 | GFP/OD630, individual replicates (p75^NTR TMD; compound 6 μM, Figure 5B): 0.46 and 0.49 and 0.42 | GFP/OD630, Mean (p75^NTR TMD; compound 8 μM, Figure 5B): 0.41 | GFP/OD630, individual replicates (p75^NTR TMD; compound 8 μM, Figure 5B): 0.41 and 0.43 and 0.37 | GFP/OD630, Mean (p75^NTR TMD; compound 10 μM, Figure 5B): 0.39 | GFP/OD630, individual replicates (p75^NTR TMD; compound 10 μM, Figure 5B): 0.36 and 0.38 and 0.43 | activity in the AraTM assay (p75^NTR TMD; structure-activity comparison): better performance at low micromolar concentrations; also recorded: best compounds; also recorded: best compound in the 4A series | GFP/OD630, Mean (p75^NTR TMD; wt, compound 5 μM, Figure 5C-E): 0.78 | GFP/OD630, individual replicates (p75^NTR TMD; wt, compound 5 μM, Figure 5C-E): 0.78 and 0.81 and 0.74 | GFP/OD630, Mean (p75^NTR TMD; [1]): 0.57 | GFP/OD630, individual replicates (p75^NTR TMD; [1]): 0.53 and 0.48 and 0.68 | GFP/OD630, Mean (p75^NTR TMD; [2]): 0.49 | GFP/OD630, individual replicates (p75^NTR TMD; [2]): 0.48 and 0.44 and 0.56 | GFP/OD630, Mean (p75^NTR TMD; [3]): 0.34 | GFP/OD630, individual replicates (p75^NTR TMD; [3]): 0.46 and 0.29 and 0.27 | GFP/OD630, Mean (p75^NTR TMD; [4]): 0.32 | GFP/OD630, individual replicates (p75^NTR TMD; [4]): 0.31 and 0.34 and 0.30 | effect of Val254 mutation on compound activity in AraTM assay (p75^NTR TMD V254A): unaffected | GFP/OD630, Mean (p75^NTR TMD V254A; compound 5 μM): 0.83 | GFP/OD630, individual replicates (p75^NTR TMD V254A; compound 5 μM): 0.98 and 0.74 and 0.77 | GFP/OD630, Mean (p75^NTR TMD V254A; compound 10 μM): 0.64 | GFP/OD630, individual replicates (p75^NTR TMD V254A; compound 10 μM): 0.63 (2×) and 0.65 | GFP/OD630, Mean (p75^NTR TMD V254A; compound 20 μM): 0.61 | GFP/OD630, individual replicates (p75^NTR TMD V254A; compound 20 μM): 0.46 and 0.62 and 0.74 | GFP/OD630, Mean (p75^NTR TMD V254A; compound 30 μM): 0.47 | GFP/OD630, individual replicates (p75^NTR TMD V254A; compound 30 μM): 0.41 and 0.51 and 0.50 | GFP/OD630, Mean (p75^NTR TMD V254A; compound 40 μM): 0.54 | GFP/OD630, individual replicates (p75^NTR TMD V254A; compound 40 μM): 0.57 and 0.51 and 0.53
